In patent US7157430B2, “(Substituted)acyl dipeptidyl inhibitors of the ICE/CED-3 family of cysteine proteases” (Idun Pharmaceuticals, Inc., priority 1998, dated 2007):
Read-outs that look alike come from different tables or passages of the source. Where a SMILES comes first, the peptide text is derived from it. The star is where a group is joined. Hydrocinnamoyl = O=C(CCc1ccccc1)*

What was measured:
Type in all cases: biochemical
[1] = target: T1, MCH-2 (Homo sapiens, UniProt P55212); experiment: Fluorescence enzyme assay, IC50 determination, Mch2
T1 sequence (P55212 24-179 limits assumed): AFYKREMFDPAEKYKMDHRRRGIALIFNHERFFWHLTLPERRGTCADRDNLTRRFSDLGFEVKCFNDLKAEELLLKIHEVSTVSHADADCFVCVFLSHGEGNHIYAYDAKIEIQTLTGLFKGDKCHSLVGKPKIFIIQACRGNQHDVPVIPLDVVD
T1 sequence (P55212 194-293 limits assumed): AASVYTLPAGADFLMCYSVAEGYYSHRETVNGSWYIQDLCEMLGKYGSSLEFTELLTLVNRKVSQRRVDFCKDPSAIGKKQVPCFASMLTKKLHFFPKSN
Description: (§1) Fluorescence enzyme assays detecting the activity of the compounds of Formula 1 utilizing the recombinant ICE and CPP32 enzymes are performed essentially according to Thornberry et al. (Nature, 356:768:774 (1992)) and Nicholson et al. (Nature, 376:37–43 (1995)) respectively, (herein incorporated by reference) in 96 well microtiter plates. The substrate is Acetyl-Tyr-Val-Ala-Asp-amino-4-methylcoumarin (AMC) for the ICE assay and Acetyl-Asp-Glu-Val-Asp-amino-4-methylcoumarin for the CPP32, Mch2, Mch3 and Mch5 assays. Enzyme reactions are run in ICE buffer (25 mM HEPES, 1 mM EDTA, 0.1% CHAPS, 10% sucrose, pH 7.5) containing 2 mM DTT at room temperature in duplicate.
(§2) The enzyme and the compound of Formula I to be assayed are allowed to preincubate in the microtitre plate wells for 30 minutes at room temperature prior to the addition of substrate to initiate the reaction. Fluorescent AMC product formation is monitored for one hour at room temperature by measuring the fluorescence emission at 460 nm using an excitation wavelength of 360 nm. The fluorescence change in duplicate (control) wells are averaged and the mean values are plotted as a function of inhibitor concentration to determine the inhibitor concentration producing 50% inhibition (IC50). The results of this assay are set forth below in Table 1 and in Table 3 (for Table 3, see Examples 11 through 52).
(§3) The reference compound for this assay was Cbz-ValAlaAsp-H and the values are denoted in Table 1 as “Reference”.

[2] = target: T2, mICE (Mus musculus, UniProt P29452); experiment: Fluorescence enzyme assay, IC50 determination, ICE
T2 sequence (P29452 123-296 limits assumed): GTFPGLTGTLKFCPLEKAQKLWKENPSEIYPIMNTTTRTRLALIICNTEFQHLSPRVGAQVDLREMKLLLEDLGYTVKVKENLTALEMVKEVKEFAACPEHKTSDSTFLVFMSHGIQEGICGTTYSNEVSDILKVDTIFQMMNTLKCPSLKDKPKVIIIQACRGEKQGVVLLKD
T2 sequence (P29452 315-402 limits assumed): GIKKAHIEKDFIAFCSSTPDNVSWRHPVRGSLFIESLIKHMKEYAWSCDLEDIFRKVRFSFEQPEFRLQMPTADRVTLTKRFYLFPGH
Description: as §1, §2, §3

[3] = target: MCH-5 (Homo sapiens, UniProt Q14790); experiment: Fluorescence enzyme assay, IC50 determination, Mch5
Description: as §1, §2, §3

[4] = target: T3, CPP32 (Homo sapiens, UniProt P42574); experiment: Fluorescence enzyme assay, IC50 determination, CPP32
T3 sequence (P42574 29-175 limits assumed): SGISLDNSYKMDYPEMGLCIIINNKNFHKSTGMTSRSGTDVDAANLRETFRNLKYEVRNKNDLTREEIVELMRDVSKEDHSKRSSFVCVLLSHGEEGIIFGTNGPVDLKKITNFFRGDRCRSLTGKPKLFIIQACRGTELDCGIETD
T3 sequence (P42574 176-277 limits assumed): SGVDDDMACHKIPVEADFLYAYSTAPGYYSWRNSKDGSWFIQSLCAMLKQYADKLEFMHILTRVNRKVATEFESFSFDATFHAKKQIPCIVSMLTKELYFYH
Description: as §1, §2, §3

[5] = target: T4, MCH-3 (Homo sapiens, UniProt P55210); experiment: Fluorescence enzyme assay, IC50 determination, Mch3
T4 sequence (P55210 24-198 limits assumed): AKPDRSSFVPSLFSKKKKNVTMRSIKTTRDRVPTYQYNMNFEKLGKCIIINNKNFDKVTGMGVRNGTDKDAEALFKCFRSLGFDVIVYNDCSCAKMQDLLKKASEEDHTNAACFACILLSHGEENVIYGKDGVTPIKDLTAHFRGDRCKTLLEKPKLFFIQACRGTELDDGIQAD
T4 sequence (P55210 207-303 limits assumed): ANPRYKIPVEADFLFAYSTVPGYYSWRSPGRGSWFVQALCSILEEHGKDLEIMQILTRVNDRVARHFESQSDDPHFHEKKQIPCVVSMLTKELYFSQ
Description: as §1, §2, §3

[6] = Table 3, method of Preparation 3A, read-out: MCH2 I50
[7] = Table 3, method of Preparation 3A, read-out: mICE I50
[8] = Table 3, method of Preparation 3A, read-out: MCH5 I50
[9] = Table 3, method of Preparation 3A, read-out: CPP32 I50
[10] = Table 3, method of Preparation 3A, read-out: MCH3 I50
[11] = Ac-DEVD-AMC substrate, 30 min preincubation, room temperature, read-out: MCH-2 IC50
[12] = Ac-DEVD-AMC substrate, 30 min preincubation, room temperature, read-out: MCH-5 IC50
[13] = recombinant enzyme, Ac-DEVD-AMC substrate, 30 min preincubation, room temperature, read-out: CPP32 IC50
[14] = Ac-DEVD-AMC substrate, 30 min preincubation, room temperature, read-out: MCH-3 IC50
[15] = recombinant enzyme, Ac-YVAD-AMC substrate, 30 min preincubation, room temperature, read-out: mICE IC50

MCH-5, sequence (Q14790 217-374 limits assumed, species assumed): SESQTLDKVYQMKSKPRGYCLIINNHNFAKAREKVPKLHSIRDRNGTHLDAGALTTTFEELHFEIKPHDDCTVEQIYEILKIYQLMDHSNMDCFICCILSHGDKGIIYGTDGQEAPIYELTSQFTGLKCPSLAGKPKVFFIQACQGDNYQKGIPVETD
MCH-5, sequence (Q14790 385-479 limits assumed, species assumed): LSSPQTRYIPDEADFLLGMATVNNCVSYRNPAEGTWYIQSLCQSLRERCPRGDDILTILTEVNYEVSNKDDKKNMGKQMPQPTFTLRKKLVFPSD

CC(C)C[C@H](NC(=O)COc1cccc2c1CCCC2)C(=O)N[C@H](C=O)CC(=O)O [Example 51]
IC50 [1, 6]: 11800 nM | IC50 [2, 7]: 1810 nM | IC50 [3, 8]: 1750 nM | IC50 [4, 9]: 324 nM | IC50 [5, 10]: 2740 nM

CC(C)C[C@H](NC(=O)C(C)Oc1ccccc1)C(=O)N[C@H](C=O)CC(=O)O (stereo partly drawn) [Example 36]
IC50 [1, 6]: > 10000 nM | IC50 [2, 7]: 20400 nM | IC50 [3, 8]: > 10000 nM | IC50 [4, 9]: 1770 nM | IC50 [5, 10]: 8270 nM

Cc1ccc2ccccc2c1OCC(=O)N[C@@H](CC(C)C)C(=O)N[C@H](C=O)CC(=O)O [Example 26]
IC50 [1, 6]: 32400 nM | IC50 [2, 7]: 843 nM | IC50 [3, 8]: 4140 nM | IC50 [4, 9]: 375 nM | IC50 [5, 10]: 4160 nM

CC(C)C[C@H](NC(=O)COc1cccc2ncccc12)C(=O)N[C@H](C=O)CC(=O)O [Example 32]
IC50 [1, 6]: > 50000 nM | IC50 [2, 7]: 5250 nM | IC50 [3, 8]: 4020 nM | IC50 [4, 9]: 412 nM | IC50 [5, 10]: 3850 nM

COc1ccc(OCC(=O)N[C@@H](CC(C)C)C(=O)N[C@H](C=O)CC(=O)O)c2ccccc12 [Example 27]
IC50 [1, 6]: 22600 nM | IC50 [2, 7]: 831 nM | IC50 [3, 8]: 1450 nM | IC50 [4, 9]: 263 nM | IC50 [5, 10]: 4080 nM

CC(C)C[C@H](NC(=O)COc1ccc(Cl)c2ccccc12)C(=O)N[C@H](C=O)CC(=O)O [Example 28]
IC50 [1, 6]: 12000 nM | IC50 [2, 7]: 429 nM | IC50 [3, 8]: 1690 nM | IC50 [4, 9]: 231 nM | IC50 [5, 10]: 3380 nM

CC(C)C[C@H](NC(=O)CCOc1cccc2ccccc12)C(=O)N[C@H](C=O)CC(=O)O [Example 22]
IC50 [1, 6]: 305 nM | IC50 [3, 8]: 9810 nM | IC50 [4, 9]: 59 nM | IC50 [5, 10]: 1370 nM

CC(C)C[C@H](NC(=O)[C@H](CCC(=O)O)Oc1cccc2ccccc12)C(=O)N[C@H](C=O)CC(=O)O [Example 3, (3S,2′S)-3-[N-((2′-(1-Naphthyloxy)-4′-Carboxy)Butyryl)Leucinyl]Amino-4-Oxobutanoic Acid]
IC50 [1, 11]: 15 nM | IC50 [3, 12]: 12 nM | IC50 [4, 13]: 21 nM | IC50 [5, 14]: 587 nM

CC(C)C[C@H](NC(=O)COc1cccc(-c2ccccc2)c1)C(=O)N[C@H](C=O)CC(=O)O [Example 40]
IC50 [1, 6]: 14500 nM | IC50 [2, 7]: 1100 nM | IC50 [3, 8]: 3860 nM | IC50 [4, 9]: 311 nM | IC50 [5, 10]: 3750 nM

CC(C)[C@H](NC(=O)COc1ccc2ccccc2c1C(=O)O)C(=O)N[C@H](C=O)CC(=O)O [Example 5, (3S)-3-[N-((1′-Carboxy-2′-Naphthyloxy)Acetyl)Valinyl]Amino-4-Oxobutanoic Acid]
IC50 [1, 11]: 3610 nM | IC50 [2, 15]: 2960 nM | IC50 [3, 12]: 733 nM | IC50 [4, 13]: 401 nM | IC50 [5, 14]: 10900 nM

CC(C)[C@H](NC(=O)COc1cc2ccccc2cc1C(=O)O)C(=O)N[C@H](C=O)CC(=O)O [Example 7, (3S)-3-[N-((3′-Carboxy-2′-Naphthyloxy)Acetyl)Valinyl]Amino-4-Oxobutanoic Acid]
IC50 [1, 11]: 1900 nM | IC50 [2, 15]: 1890 nM | IC50 [3, 12]: 200 nM | IC50 [4, 13]: 731 nM | IC50 [5, 14]: 17000 nM

CC(C)C[C@H](NC(=O)CNc1cccc2ccccc12)C(=O)N[C@H](C=O)CC(=O)O [Example 8, (3S)-3-[N-((1-Naphthylamino)Acetyl)Leucinyl]Amino-4-Oxobutanoic Acid]
IC50 [1, 11]: 37 nM | IC50 [2, 15]: 33 nM | IC50 [3, 12]: 7.6 nM | IC50 [4, 13]: 13 nM | IC50 [5, 14]: 1320 nM

CC(C)C[C@H](NC(=O)COc1cccc2ccccc12)C(=O)N[C@H](C=O)CC(=O)O [Example 1, (3S)-3-[N-((1-Naphthyloxy)Acetyl)Leucinyl]Amino-4-Oxobutanoic Acid]
IC50 [1, 11]: 995 nM | IC50 [2, 15]: 535 nM | IC50 [3, 12]: 680 nM | IC50 [4, 13]: 141 nM | IC50 [5, 14]: 1560 nM

CC(C)C[C@H](NC(=O)C(C)Nc1cccc2ccccc12)C(=O)N[C@H](C=O)CC(=O)O (mixture of isomers) [Example 9, (3S,2′RS)-3-[N-(2′-(1-Naphthylamino)Propionyl)Leucinyl]Amino-4-Oxobutanoic Acid]
IC50 [1, 11]: 310 nM | IC50 [3, 12]: 17 nM | IC50 [4, 13]: 512 nM | IC50 [5, 14]: 7240 nM

CC(C)C[C@H](NC(=O)CCc1cccc2ccccc12)C(=O)N[C@H](C=O)CC(=O)O [Example 11]
IC50 [1, 6]: 4190 nM | IC50 [2, 7]: 1860 nM | IC50 [3, 8]: 12200 nM | IC50 [4, 9]: 1590 nM | IC50 [5, 10]: 8780 nM

CC(C)[C@H](NC(=O)COc1cccc2ccccc12)C(=O)N[C@H](C=O)CC(=O)O [Example 2, (3S)-3-[N-((1-Naphthyloxy)Acetyl)Valinyl]Amino-4-Oxobutanoic Acid]
IC50 [1, 11]: > 10000 nM | IC50 [2, 15]: 336 nM | IC50 [3, 12]: 1200 nM | IC50 [4, 13]: 355 nM | IC50 [5, 14]: 2100 nM

CC(C)C[C@H](NC(=O)C(C)Oc1cccc2ccccc12)C(=O)N[C@H](C=O)CC(=O)O (stereo partly drawn) [Example 14]
IC50 [1, 6]: 1280 nM | IC50 [3, 8]: 2430 nM | IC50 [4, 9]: 376 nM | IC50 [5, 10]: 1320 nM

CC(C)C[C@H](NC(=O)CCc1ccccc1)C(=O)N[C@H](C=O)CC(=O)O [Example 35] (Hydrocinnamoyl-Leu-Asp-aldehyde)
IC50 [2, 7]: > 10000 nM | IC50 [3, 8]: > 10000 nM | IC50 [4, 9]: 9740 nM | IC50 [5, 10]: > 10000 nM

CC(C)C[C@H](NC(=O)[C@@H](CCC(=O)O)Oc1cccc2ccccc12)C(=O)N[C@H](C=O)CC(=O)O [Example 4, (3S,2′R)-3-[N-((2′-(1-Naphthyloxy)-4′-Carboxy)Butyryl)Leucinyl]Amino-4-Oxobutanoic Acid]
IC50 [1, 11]: 3.5 nM | IC50 [3, 12]: 31 nM | IC50 [4, 13]: 3.8 nM | IC50 [5, 14]: 130 nM

CC(C)C[C@H](NC(=O)C(C)Oc1cccc2cc(Br)ccc12)C(=O)N[C@H](C=O)CC(=O)O (stereo partly drawn) [Example 15]
IC50 [1, 6]: 13800 nM | IC50 [3, 8]: 29100 nM | IC50 [4, 9]: 4810 nM | IC50 [5, 10]: 32400 nM
